Experimental data as given in patent US20240190880A1 (THE REGENTS OF THE UNIVERSITY OF MICHIGAN, priority 2021, published 2024).

The compounds below were run against T1, ER (Homo sapiens, UniProt P03372) (assay: ER degradation activity, in-cell western blot analysis in T47D cells). Details: 16 hours, Table A does not say which cell line (T47D or MCF7), read-out: Potency (DC50).
T1 construct: host or cells: T47D and MCF7 human breast cancer cells
T1 sequence (P03372 1-595): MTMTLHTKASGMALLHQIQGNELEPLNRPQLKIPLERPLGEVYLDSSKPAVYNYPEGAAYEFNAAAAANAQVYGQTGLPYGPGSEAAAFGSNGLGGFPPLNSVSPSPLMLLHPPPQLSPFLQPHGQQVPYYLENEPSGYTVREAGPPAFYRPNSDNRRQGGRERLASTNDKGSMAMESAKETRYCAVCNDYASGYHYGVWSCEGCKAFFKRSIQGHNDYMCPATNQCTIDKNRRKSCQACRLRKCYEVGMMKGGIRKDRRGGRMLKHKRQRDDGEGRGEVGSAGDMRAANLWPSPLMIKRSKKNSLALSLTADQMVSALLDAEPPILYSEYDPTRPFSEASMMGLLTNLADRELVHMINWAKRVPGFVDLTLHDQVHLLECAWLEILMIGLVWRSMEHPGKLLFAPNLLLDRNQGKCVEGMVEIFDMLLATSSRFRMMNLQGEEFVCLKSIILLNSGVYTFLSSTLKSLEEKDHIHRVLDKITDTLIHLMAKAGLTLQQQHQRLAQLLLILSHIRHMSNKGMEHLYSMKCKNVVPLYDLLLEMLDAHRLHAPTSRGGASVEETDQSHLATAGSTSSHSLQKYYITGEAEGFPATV
Assay type: cell-based
How it was run: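 Cells were seeded overnight, exposed to diluted compounds for 16 hours, then stained with primary antibodies and with infrared-labelled secondary antibodies (1:1000, 1 h RT). Plates were scanned on a CLX reader, and ER levels were normalised to DMSO-treated wells.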
C[C@@H]1Cc2c([nH]c3ccccc23)[C@@H](c2ccc(N3CCC4(CCN(C(=O)CN5Cc6cc7c(cc6C5)C(=O)N(C5CCC(=O)NC5=O)C7=O)CC4)CC3)cc2F)N1CC(F)F (stereo partly drawn) [E 293, 6-(2-(9-(4-((1R,3R)-2-(2,2-difluoroethyl)-3-methyl-2,3,4,9-tetrahydro-1H-pyrido[3,4-b]indol-1-yl)-3-fluorophenyl)-3,9-diazaspiro[5.5]undecan-3-yl)-2-oxoethyl)-2-(2,6-dioxopiperidin-3-yl)-6,7-dihydropyrrolo[3,4-f]isoindole-1,3(2H,5H)-dione] gave a DC50 of 0.01 to 0.1 µM.
Compound O=C1CCC(N2Cc3cc4c(cc3C2=O)CN(C2CCN(CC3CN(c5ccc([C@@H]6c7ccc(O)cc7CC[C@@H]6c6ccccc6)cc5)C3)CC2)C4)C(=O)N1 (stereo partly drawn) [E 294, 3-(6-(1-((1-(4-((1R,2S)-6-hydroxy-2-phenyl-1,2,3,4-tetrahydronaphthalen-1-yl)phenyl)azetidin-3-yl)methyl)piperidin-4-yl)-1-oxo-3,5,6,7-tetrahydropyrrolo[3,4-f]isoindol-2(1H)-yl)piperidine-2,6-dione] has a DC50 greater than 0.1 µM.
O=C1CCC(N2C(=O)c3cc4c(cc3C2=O)CN(C(=O)C2CCN(CC3CN(c5ccc([C@@H]6c7ccc(O)cc7CC[C@@H]6c6ccccc6)cc5)C3)CC2)C4)C(=O)N1 (stereo partly drawn) [E 295, 2-(2,6-dioxopiperidin-3-yl)-6-(1-((1-(4-((1R,2S)-6-hydroxy-2-phenyl-1,2,3,4-tetrahydronaphthalen-1-yl)phenyl)azetidin-3-yl)methyl)piperidine-4-carbonyl)-6,7-dihydropyrrolo[3,4-f]isoindole-1,3(2H,5H)-dione] was tested, and the DC50 was greater than 0.1 µM.
O=C1CCC(N2Cc3cc4c(cc3C2=O)CN(C(=O)C2CCN(CC3CN(c5ccc([C@@H]6c7ccc(O)cc7CC[C@@H]6c6ccccc6)cc5)C3)CC2)C4)C(=O)N1 (stereo partly drawn) [E 296, 3-(6-(1-((1-(4-((1R,2S)-6-hydroxy-2-phenyl-1,2,3,4-tetrahydronaphthalen-1-yl)phenyl)azetidin-3-yl)methyl)piperidine-4-carbonyl)-1-oxo-3,5,6,7-tetrahydropyrrolo[3,4-f]isoindol-2(1H)-yl)piperidine-2,6-dione] gave a DC50 greater than 0.1 µM.
Compound O=C1CCC(N2C(=O)c3cc4c(cc3C2=O)CN(CC2CCC(N3CCN(c5ccc([C@@H]6c7ccc(O)cc7CC[C@@H]6c6ccccc6)cc5)CC3)CC2)C4)C(=O)N1 (stereo partly drawn) [E 299, 2-(2,6-dioxopiperidin-3-yl)-6-((4-(4-(4-((1R,2S)-6-hydroxy-2-phenyl-1,2,3,4-tetrahydronaphthalen-1-yl)phenyl)piperazin-1-yl)cyclohexyl)methyl)-6,7-dihydropyrrolo[3,4-f]isoindole-1,3(2H,5H)-dione] has a DC50 of 0.01 to 0.1 µM.
For C[C@@H]1Cc2cc(O)ccc2[C@@H](c2ccc(N3CCC4(CCN(C(=O)CN5Cc6cc7c(cc6C5)C(=O)N(C5CCC(=O)NC5=O)C7=O)CC4)CC3)cc2)N1CC(F)F (stereo partly drawn) [E 301, 6-(2-(9-(4-((1R,3R)-2-(2,2-difluoroethyl)-6-hydroxy-3-methyl-1,2,3,4-tetrahydroisoquinolin-1-yl)phenyl)-3,9-diazaspiro[5.5]undecan-3-yl)-2-oxoethyl)-2-(2,6-dioxopiperidin-3-yl)-6,7-dihydropyrrolo[3,4-f]isoindole-1,3(2H,5H)-dione], the DC50 was 0.01 to 0.1 µM.
Compound C[C@@H]1Cc2c([nH]c3ccccc23)[C@@H](c2ccc(N3CCC(C(=O)N4CCC(N5Cc6cc7c(cc6C5)C(=O)N(C5CCC(=O)NC5=O)C7=O)CC4)CC3)cc2F)N1CC(F)F (stereo partly drawn) [E 302, 6-(1-(1-(4-((1R,3R)-2-(2,2-difluoroethyl)-3-methyl-2,3,4,9-tetrahydro-1H-pyrido[3,4-b]indol-1-yl)-3-fluorophenyl)piperidine-4-carbonyl)piperidin-4-yl)-2-(2,6-dioxopiperidin-3-yl)-6,7-dihydropyrrolo[3,4-f]isoindole-1,3(2H,5H)-dione] has a DC50 of less than 0.01 µM.
Work on O=C1CCC(N2C(=O)c3cc4c(cc3C2=O)CN(C2CCC(NC3CCN(c5ccc([C@@H]6c7ccc(O)cc7CC[C@@H]6c6ccccc6)cc5)CC3)CC2)C4)C(=O)N1 (stereo partly drawn) [E 303, 2-(2,6-dioxopiperidin-3-yl)-6-(4-((1-(4-((1R,2S)-6-hydroxy-2-phenyl-1,2,3,4-tetrahydronaphthalen-1-yl)phenyl)piperidin-4-yl)amino)cyclohexyl)-6,7-dihydropyrrolo[3,4-f]isoindole-1,3(2H,5H)-dione] yielded a DC50 greater than 0.1 µM.
For C[C@@H]1Cc2c([nH]c3ccccc23)[C@@H](c2c(F)cc(C3CCC(C(=O)N4CCC(N5Cc6cc7c(cc6C5)C(=O)N(C5CCC(=O)NC5=O)C7)CC4)CC3)cc2F)N1CC(F)F (stereo partly drawn) [E 307, 3-(6-(1-(4-(4-((1R,3R)-2-(2,2-difluoroethyl)-3-methyl-2,3,4,9-tetrahydro-1H-pyrido[3,4-b]indol-1-yl)-3,5-difluorophenyl)cyclohexane-1-carbonyl)piperidin-4-yl)-1-oxo-3,5,6,7-tetrahydropyrrolo[3,4-f]isoindol-2(1H)-yl)piperidine-2,6-dione], the DC50 was less than 0.01 µM.
Work on C[C@@H]1Cc2c([nH]c3ccccc23)[C@@H](c2c(F)cc(C3CCC(CN4CCC(N5Cc6cc7c(cc6C5)C(=O)N(C5CCC(=O)NC5=O)C7)CC4)CC3)cc2F)N1CC(F)F (stereo partly drawn) [E 308, 3-(6-(1-((4-(4-((1R,3R)-2-(2,2-difluoroethyl)-3-methyl-2,3,4,9-tetrahydro-1H-pyrido[3,4-b]indol-1-yl)-3,5-difluorophenyl)cyclohexyl)methyl)piperidin-4-yl)-1-oxo-3,5,6,7-tetrahydropyrrolo[3,4-f]isoindol-2(1H)-yl)piperidine-2,6-dione] yielded a DC50 of 0.01 to 0.1 µM.
Compound C[C@@H]1Cc2c([nH]c3ccccc23)[C@@H](c2c(F)cc(-c3cnc(C(=O)N4CCC(N5Cc6cc7c(cc6C5)C(=O)N(C5CCC(=O)NC5=O)C7=O)CC4)nc3)cc2F)N1CC(F)F (stereo partly drawn) [E 309, 6-(1-(5-(4-((1R,3R)-2-(2,2-difluoroethyl)-3-methyl-2,3,4,9-tetrahydro-1H-pyrido[3,4-b]indol-1-yl)-3,5-difluorophenyl)pyrimidine-2-carbonyl)piperidin-4-yl)-2-(2,6-dioxopiperidin-3-yl)-6,7-dihydropyrrolo[3,4-f]isoindole-1,3(2H,5H)-dione] has a DC50 of 0.01 to 0.1 µM.
With O=C1CCC(N2C(=O)c3cc4c(cc3C2=O)CN(C(=O)[C@H]2CC[C@H](CN3CC(Oc5ccc([C@@H]6c7ccc(O)cc7CC[C@@H]6c6ccccc6)cc5)C3)CC2)C4)C(=O)N1 (stereo partly drawn) [E 310, 2-(2,6-dioxopiperidin-3-yl)-6-((1R,4r)-4-((3-(4-((1R,2S)-6-hydroxy-2-phenyl-1,2,3,4-tetrahydronaphthalen-1-yl)phenoxy)azetidin-1-yl)methyl)cyclohexane-1-carbonyl)-6,7-dihydropyrrolo[3,4-f]isoindole-1,3(2H,5H)-dione] the DC50 was greater than 0.1 µM.
For O=C1CCC(N2C(=O)c3cc4c(cc3C2=O)CN(Cc2ccc(N3CCN(c5ccc([C@@H]6c7ccc(O)cc7CC[C@@H]6c6ccccc6)cc5)CC3)nc2)C4)C(=O)N1 (stereo partly drawn) [E 311, 2-(2,6-dioxopiperidin-3-yl)-6-((6-(4-(4-((1R,2S)-6-hydroxy-2-phenyl-1,2,3,4-tetrahydronaphthalen-1-yl)phenyl)piperazin-1-yl)pyridin-3-yl)methyl)-6,7-dihydropyrrolo[3,4-f]isoindole-1,3(2H,5H)-dione], the DC50 was greater than 0.1 µM.
C[C@@H]1Cc2c([nH]c3ccccc23)[C@@H](c2ccc(C3CCC(C(=O)N4CCC(N5Cc6cc7c(cc6C5)C(=O)N(C5CCC(=O)NC5=O)C7=O)CC4)CC3)cc2F)N1CC(F)F (stereo partly drawn) [E 312, 6-(1-(4-(4-((1R,3R)-2-(2,2-difluoroethyl)-3-methyl-2,3,4,9-tetrahydro-1H-pyrido[3,4-b]indol-1-yl)-3-fluorophenyl)cyclohexane-1-carbonyl)piperidin-4-yl)-2-(2,6-dioxopiperidin-3-yl)-6,7-dihydropyrrolo[3,4-f]isoindole-1,3(2H,5H)-dione] gave a DC50 of 0.01 to 0.1 µM.
For C[C@@H]1Cc2c([nH]c3ccccc23)[C@@H](c2ccc(C3CCC(C(=O)N4CCC(N5Cc6cc7c(cc6C5)C(=O)N(C5CCC(=O)NC5=O)C7=O)CC4)CC3)cn2)N1CC(F)F (stereo partly drawn) [E 313, 6-(1-(4-(6-((1S,3R)-2-(2,2-difluoroethyl)-3-methyl-2,3,4,9-tetrahydro-1H-pyrido[3,4-b]indol-1-yl)pyridin-3-yl)cyclohexane-1-carbonyl)piperidin-4-yl)-2-(2,6-dioxopiperidin-3-yl)-6,7-dihydropyrrolo[3,4-f]isoindole-1,3(2H,5H)-dione], the DC50 was 0.01 to 0.1 µM.
C[C@@H]1Cc2c([nH]c3ccccc23)[C@@H](c2ccc(C3=CCC(C(=O)N4CCC(N5Cc6cc7c(cc6C5)C(=O)N(C5CCC(=O)NC5=O)C7=O)CC4)CC3)nc2)N1CC(F)F (stereo partly drawn) [E 314, 6-(1-(4-(5-((1R,3R)-2-(2,2-difluoroethyl)-3-methyl-2,3,4,9-tetrahydro-1H-pyrido[3,4-b]indol-1-yl)pyridin-2-yl)cyclohex-3-ene-1-carbonyl)piperidin-4-yl)-2-(2,6-dioxopiperidin-3-yl)-6,7-dihydropyrrolo[3,4-f]isoindole-1,3(2H,5H)-dione] gave a DC50 greater than 0.1 µM.
